Assay results from paper PMC12040169 (PLOS Biology, 2025).

assay: in vitro; conditions: human, hela cells

Compound	viability at 28.5 h, 10 µM
O=C(CC(c1ccccc1)c1c(O)c2ccccc2oc1=O)c1ccc(-c2ccc(Br)cc2)cc1 (stereo not shown) [CBK260877]	91.8%

same assay, conditions: human, hela cells, % viability

Compound	viability at 28.5 h, 10 µM
CC(C)Nc1nc2ccccc2nc1OCc1ccsc1 [CBK115660]	104%
O=C(CSCc1ccc(Cl)cc1)Nc1ccc(S(=O)(=O)N2CCCCCC2)cc1 [CBK267017]	112%
COc1ccc2ncc(C#N)c(Nc3ccc(OC)c(OC)c3)c2c1 [CBK287808]	92.3%
O=C(c1ccc(-c2ccc(OCC3CCN(c4ncccn4)CC3)cn2)cc1)N1CCOCC1 [CBK173183]	91.8%
O=C(NCc1ccc(F)cc1)c1ncoc1-c1cccs1 [CBK283976]	91.7%
CCOC(=O)c1ccc(S(=O)(=O)N2CCCCC2)cc1 [CBK069738]	106%
COc1ccc(C(NC(=O)[C@H]2CCCN2C(=O)COc2ccccc2)c2ccccc2C)cn1 (stereo partly shown) [CBK076682]	96.1%
Cc1ccc(CNC(=O)CN(c2cccc(C(F)(F)F)c2)S(=O)(=O)c2ccc(C)cc2)cc1 [CBK263997]	89.3%
Nc1nc(SCC(=O)NCc2ccc3c(c2)OCO3)n[nH]1 [CBK266580]	101%
FC(F)(F)c1ccc(SCc2ccccc2)nc1 [CBK103715]	89.7%
COc1ccc(CCNC(=O)CSc2nc(N)c3c4c(sc3n2)CCCC4)cc1 [CBK095784]	94.2%
Cn1c(CN2CCCCC2)nc2cc(NS(=O)(=O)c3ccc(Cl)cc3)ccc21 [CBK268404]	82.8%
Cn1c(SCC(=O)c2ccccc2)nc2ccccc2c1=O [CBK055260]	87.6%
O=C1CCc2cccc(OCCO)c21 [CBK001442]	92.7%
C[C@H]1[C@@H]2[C@@H](O)C([C@H](C)C(=O)NC3CC3)CC[C@@]2(C)CC[C@@H]1NC(=O)c1cncnc1 (stereo partly shown) [CBK289453]	91.5%
COc1ccccc1-c1cnc2[nH]c(=O)n(CC3CCOCC3)c2n1 [CBK064286]	100%
Cc1nc(O)cc(C2CCCN(C(=O)c3csc4c3CCCC4)C2)n1 (stereo not shown) [CBK306696]	87.3%
CN(C)Cc1cc(-c2ccccc2F)nn1CCNC(=O)C1CC1 [CBK282006]	90.5%
O=C(Cn1ccc(=O)[nH]c1=O)NCc1cccnc1OC1CCCC1 [CBK305582]	94.9%
COc1cc2c(cc1CN1CCOCC1CC(=O)O)CCC2 (stereo not shown) [CBK307277]	102%
CC(C)C(CNCc1ccsc1)c1ccnn1C (stereo not shown) [CBK304821]	93.9%

Compound	viability at 28.5 h, 10 µM
COC(=O)c1sccc1-c1ccc(C2C3=C(CCCC3=O)NC3=C2C(=O)CCC3)o1 [CBK005748]	92.3%
COC(=O)CCc1ccc(S(=O)(=O)N2CCCN(Cc3c[nH]c4ccc(Cl)cc34)CC2)cc1 [CBK063000]	99.2%
Cc1ccc2c(c1)C(NC(=O)N(C)C1CCS(=O)(=O)CC1)CC(C)(C)O2 (stereo not shown) [CBK307654]	108%
CC1=CCC(C(=O)O)C(C(=O)Nc2ccccc2NC(=O)c2ccc(C(F)(F)F)cc2)C1 (stereo not shown) [CBK265794]	99.9%
O=C(NCc1ccc2c(c1)CCN2C(=O)c1ccncc1)c1cccnc1 [CBK288585]	91.4%
CN(C)C(CC(=O)Nc1cccc(Cl)c1Cl)C(=O)O (stereo not shown) [CBK266952]	107%
COc1ccc(C(O)Cc2nc3ccccc3n2Cc2ccc(Cl)cc2)cc1 (stereo not shown) [CBK262143]	86.2%
Cc1ccc(NC(=O)C2CC=CCC2C(=O)O)cc1NC(=O)c1ccc(Cl)cc1 (stereo not shown) [CBK268980]	92.6%
CCOc1ccccc1/C=N/Nc1ccccc1[N+](=O)[O-] [CBK261673]	94.7%
Cc1ccc2oc(C(=O)Nc3ccc(-n4cnnn4)cc3)c(C)c2c1 [CBK287804]	88.1%
O=S(=O)(Nc1ccc(N2CCNCC2)nc1)c1ccc(F)cc1F [CBK000022C]	110%
CN(C)CCN1CCN(CC2(c3ccc(Cl)cc3)CC2)CC1 [CBK282783]	103%
Cc1cc(NC(=O)C(=O)NCCCN2CCOCC2)ccc1Br [CBK268046]	94.7%
COCc1nnc(SCC(=O)N2CCc3ccccc32)n1-c1ccccc1 [CBK269739]	83.1%
O=C(Nc1ccc(I)cc1C(=O)NCCN1CCOCC1)c1ccccc1Cl [CBK266245]	101%
COc1nccnc1N1CCN(Cc2cccnc2)CC1 [CBK084213]	91.2%
O=S(=O)(NCc1nc2ccccc2[nH]1)c1ccc(Cl)c(Cl)c1 [CBK261137]	86.2%
CCOCc1ccc(C(=O)N2CCNC(=O)C2Cc2ccc(-c3cccs3)cc2)cc1 (stereo not shown) [CBK285811]	97.3%
COC(=O)c1ccc(NC(=O)CC2Sc3ccc(C(F)(F)F)cc3NC2=O)cc1 (stereo not shown) [CBK264645]	110%
Nc1ncc([C@H]2C[C@@H](O)[C@@H](CO)O2)c(=O)[nH]1 [CBK201246]	79.8%
COc1ccc(C(=O)NCCc2ccc(S(N)(=O)=O)cc2)cc1[N+](=O)[O-] [CBK264335]	99.8%

Compound	viability at 28.5 h, 10 µM
COc1ccc(CCN2CCC(Oc3nccnc3NS(C)(=O)=O)CC2)cc1OC [CBK084285]	103%
Cc1ccccc1-c1nnc(SC(C)C)n1CCNCCO [CBK200084T]	86.9%
c1cncc(-c2nccnc2N2CCN(c3ccncc3)CC2)c1 [CBK036965]	86.4%
Cc1nn(Cc2ccc(Cl)cc2)c(C)c1NC(=O)CSc1nc(-c2ccc(F)cc2)cc(C(F)(F)F)n1 [CBK266160]	89.7%
Cc1ccc2nc(-c3ccc(N4C(Nc5nc(C)cc(C)n5)=NC(=O)CC4C(=O)O)cc3)sc2c1 (stereo not shown) [CBK266646]	104%
CN1CCN(c2nc(-c3ccoc3)cnc2N)CC1 [CBK063362]	103%
Cc1ccc(C(=O)C2=C(O)C(=O)N(CCCn3ccnc3)C2c2ccncc2)cc1 (stereo not shown) [CBK264476]	106%
c1cnn(C2CCCN(Cc3ccc(Oc4cnccn4)cc3)C2)c1 (stereo not shown) [CBK304043]	96.9%
O=C(O)C[C@]1(C(=O)Nc2ccc(F)cc2)CC(/C=C/c2ccccc2)=NO1 [CBK286608]	87.3%
CCOc1ccc(C(=O)NCCC(=O)O)cc1 [CBK261725D]	92.2%
c1ncn(C2CCCCC2)c1C1CCCCC1 [CBK016758]	101%
O=c1c2c3c(sc2n2c(S)nnc2n1Cc1ccccc1)CN(Cc1ccccc1)CC3 [CBK262973]	95%
O=C(N[C@H]1CCN2C(=O)[C@H]3CCCN3C(=O)[C@@H]2C1)c1cccs1 [CBK289538]	106%
c1ccc(COc2nccnc2-c2cccs2)nc1 [CBK107055]	107%
COc1cc(NC(=O)NCC2CCN(CCOc3c(OC)cccc3OC)CC2)cc(OC)c1 [CBK051514]	89.1%
Fc1ccccc1COc1cccc(CNCc2ccccn2)c1 [CBK268552C]	101%
CC(C)Nc1nc(C#N)nc(NC(C)C)n1 [CBK027421]	84.7%
CCNC(=O)Nc1ccc2c(-c3cccc(C(F)(F)F)c3)ccnc2n1 [CBK070678]	93.7%
O=C1C(C2CCN(Cc3ccc4ncccc4c3)CC2)CC=CCN1Cc1ccccc1 (stereo not shown) [CBK286269]	108%
O=C(O)CCSc1nccc(C(F)(F)F)n1 [CBK107864]	87.5%
CNC(=O)c1ccc(-n2ccnc2)c(-n2cccc2)c1 [CBK282461]	80.8%

Compound	viability at 28.5 h, 10 µM
Cc1cc(OCC(=O)O/N=C(\N)Cc2ccc([N+](=O)[O-])cc2)ccc1Cl [CBK264322]	98.2%
Cc1cc2ncn(CC(=O)Nc3c(C)noc3C)c2cc1C [CBK200222]	79.5%
CCn1c(SCC(=O)O)nnc1-c1ccco1 [CBK068633]	86.8%
CCOC(=O)N1CCC(NS(=O)(=O)c2cc(C(=O)OC)n(C)c2)CC1 [CBK304688]	92.3%
COc1ccccc1CN(C)C(C)C(=O)Nc1ccc(NC(C)=O)cc1 (stereo not shown) [CBK305873]	100%
CN1CCC[C@H]1COc1ncccc1OCCO [CBK042185]	92.6%
Cc1cc(COc2ccc(C(F)(F)F)cn2)no1 [CBK115792]	91.7%
COCCc1nsc(N2CCCC(c3nccs3)C2)n1 (stereo not shown) [CBK305110]	92%
COc1cccc(-c2noc(C3CCN(CCc4ccc(F)cc4)CC3)n2)c1 [CBK051461]	121%
O=C(N1CCOCC1)C12CC3CC(CC(C3)C1)C2 [CBK089368]	90.3%
O=C(c1ccco1)N(CCCn1ccnc1)c1nc2c(F)cccc2s1 [CBK287758]	86.4%
Cc1ccc(C(C)(C)C(=O)N2CC(C(=O)N3CCN(C)CC3)C2)cc1 [CBK281371]	99.4%
CCCCCOc1ccc(Nc2cc(-c3ccccc3N(C)C)ncn2)cc1 [CBK090890]	81.9%
O=C(O)CCCCCN1C(=O)/C(=C/c2ccc(O)cc2)SC1=S [CBK262835]	87.6%
COc1ccc(NC(=O)c2ccc3ncsc3c2)cc1 [CBK287368]	107%
CS(=O)(=O)Nc1cccc(-c2cnc3[nH]c(=O)n(Cc4ccc(S(C)(=O)=O)cc4)c3n2)c1 [CBK065061]	98.6%
CCCCN(C(=O)C(F)(F)c1ccccc1)c1c(N)n(CCC)c(=O)[nH]c1=O [CBK297769]	91.4%
O=C1C=C(O)CC(CCc2ccc(F)cc2)(CCc2ccc(F)cc2)O1 [CBK008148]	92.7%
COc1cc(C(C)NC2CCN(c3nc(C)cs3)CC2)ccn1 (stereo not shown) [CBK304247]	83.4%

same assay, conditions: human, hela cells, % viability, bulk resorufin, single well

Compound	viability at 28.5 h, 10 µM
CCN(CC)CCCNC=C1C(=O)NC(=O)NC1=O [CBK262403]	94%
CNC(=O)c1nn(Cc2ccc(Cl)cc2)c2ccccc12 [CBK088451]	87.6%
O=[N+]([O-])c1ccccc1CN1CCN(c2ccccc2Cl)CC1 [CBK261572]	92%
O=C(O)c1cc(N2C(=O)c3cccc4c([N+](=O)[O-])ccc(c34)C2=O)cc(N2C(=O)c3cccc4c([N+](=O)[O-])ccc(c34)C2=O)c1 [CBK262119]	91.8%
CCOc1ccccc1CN1CCN(C)CC1 [CBK261577]	91%
